{"source": "patent US20260007679A1", "about": "“METHODS OF TREATING CANCER USING 3-(4-((4-(MORPHOLINOMETHYL)BENZYL)OXY)-1-OXOISOINDOLIN-2-YL)PIPERIDINE-2,6-DIONE” (Celgene Corporation, priority 2012, published 2026)", "key": {"DoHH2 cell line [1]": {"test_system": "DoHH2 cell line", "experiment": "Cell cycle analysis", "format": "cell-based", "experimental": "(§1) Cell Cycle Analysis: Cells were treated with DMSO or an amount of a compound provided herein for 48 hours. Propidium iodide staining for cell cycle was performed using CycleTEST PLUS (Becton Dickinson) according to manufacturer's protocol. Following staining, cells were analyzed by a FACSCalibur flow cytometer using ModFit LT software (Becton Dickinson)."}, "WSU-DLCL2 cell line": {"test_system": "WSU-DLCL2 cell line", "experiment": "Cell cycle analysis", "format": "cell-based", "experimental": "as §1"}, "DoHH2 FL cells": {"test_system": "DoHH2 FL cells", "experiment": "3 day 3H-thymidine incorporation assay", "format": "cell-based"}, "Karpas-1106P": {"test_system": "Karpas-1106P", "experiment": "5 day 3H thymidine incorporation", "format": "cell-based", "conditions": "Homo sapiens, PMBL", "experimental": "(§2) Cells were treated with the tested compound for 5 days at 37° C.; proliferation of cells was determined using ^3H-thymidine incorporation method."}, "OCI-Ly10": {"test_system": "OCI-Ly10", "experiment": "5 day 3H thymidine incorporation", "format": "cell-based", "conditions": "Homo sapiens, ABC subtype", "experimental": "as §2"}, "OCI-Ly3": {"test_system": "OCI-Ly3", "experiment": "5 day 3H thymidine incorporation", "format": "cell-based", "conditions": "Homo sapiens, ABC subtype", "experimental": "as §2"}, "RIVA": {"test_system": "RIVA", "experiment": "5 day 3H thymidine incorporation", "format": "cell-based", "conditions": "ABC subtype", "experimental": "as §2"}, "SUDHL4": {"test_system": "SUDHL4", "experiment": "5 day 3H thymidine incorporation", "format": "cell-based", "conditions": "Homo sapiens, SU-DHL-4; GCB subtype", "experimental": "as §2"}, "TMD8": {"test_system": "TMD8", "experiment": "5 day 3H thymidine incorporation", "format": "cell-based", "conditions": "Homo sapiens, ABC subtype", "experimental": "as §2"}, "U2932": {"test_system": "U2932", "experiment": "5 day 3H thymidine incorporation", "format": "cell-based", "conditions": "Homo sapiens, ABC subtype", "experimental": "as §2"}, "[2]": {"test_system": "Revlimid-resistant NCI-H929 R1-10", "experiment": "Proliferation and viability by 7-AAD staining", "format": "cell-based", "conditions": "Homo sapiens, NCI-H929, 120 h; R1-10; 5 days; read-out: IC50, proliferation"}, "[3]": {"test_system": "Revlimid-resistant NCI-H929 R2-10", "experiment": "Proliferation and viability by 7-AAD staining", "format": "cell-based", "conditions": "Homo sapiens, NCI-H929, 120 h; R2-10; 5 days; read-out: IC50, proliferation"}, "[4]": {"test_system": "Revlimid-resistant NCI-H929 R3-10", "experiment": "Proliferation and viability by 7-AAD staining", "format": "cell-based", "conditions": "Homo sapiens, NCI-H929, 120 h; R3-10; 5 days; read-out: IC50, proliferation"}, "[5]": {"test_system": "Revlimid-resistant NCI-H929 R4-10", "experiment": "Proliferation and viability by 7-AAD staining", "format": "cell-based", "conditions": "Homo sapiens, NCI-H929, 120 h; R4-10; 5 days; read-out: IC50, proliferation"}, "H929 cells": {"test_system": "H929 cells", "experiment": "Cell cycle and protein expression in H929 cells", "format": "cell-based"}, "[6]": {"test_system": "DoHH2 Follicular Lymphoma xenograft", "experiment": "DoHH2 Follicular Lymphoma xenograft model", "format": "in vivo, mouse"}, "[7]": {"experiment": "Pharmacokinetics in monkey", "format": "in vivo", "conditions": ">99.5% S-enantiomer, <0.5% R-enantiomer"}, "DoHH2 cell line [8]": {"test_system": "DoHH2 cell line", "experiment": "Apoptosis analysis (annexin-V)", "format": "cell-based", "experimental": "Apoptosis Analysis: Cells were treated with DMSO or an amount of a compound provided herein at various time points, then washed with annexin-V wash buffer (BD Biosciences). Cells were incubated with annexin-V binding protein and propidium iodide (BD Biosciences) for 10 minutes. Samples were analyzed using flow cytometry."}, "[9]": {"test_system": "blood vessel growth in Matrigel plugs", "experiment": "Mouse Matrigel angiogenesis model", "format": "in vivo, C57B/6 mice", "conditions": "3 and 30 mpk; 10 days", "experimental": "Mouse Matrigel Angiogenesis model was conducted as follows: Matrigel plugs with rhVegf, rhbFGF and heparin were inserted into C57B/6 mice for 10 days with drug treatment. Plugs were analyzed for ms CD31 by IHC."}, "[10]": {"conditions": "2 mg/kg monotherapy, 91% S-enantiomer, 9% R-enantiomer"}, "[11]": {"conditions": "3 mg/kg monotherapy, 84% S-enantiomer, 16% R-enantiomer"}, "[12]": {"conditions": "3 mg/kg with Rituxan 1 mg/kg, 84% S-enantiomer, 16% R-enantiomer"}, "[13]": {"conditions": "30 mg/kg monotherapy, Compound I-S: 84% S-enantiomer, 16% R-enantiomer"}, "[14]": {"conditions": "30 mg/kg with Rituxan 1 mg/kg, Compound I-S: 84% S-enantiomer, 16% R-enantiomer"}, "[15]": {"conditions": "40 mg/kg monotherapy, Compound I-S: 91% S-enantiomer, 9% R-enantiomer"}}, "note": "Values joined by “and” are separate entries in the source; they are usually repeats but may differ in a detail not shown here. Identical values can stand only once.", "data": [{"smiles": "O=C1CC[C@H](N2Cc3c(OCc4ccc(CN5CCOCC5)cc4)cccc3C2=O)C(=O)N1", "note": "[Compound I-S, (S)-3-(4-((4-(morpholinomethyl)benzyl)oxy)-1-oxoisoindolin-2-yl)piperidine-2,6-dione]", "values": [{"measurement": "cell cycle effect", "setting": "DoHH2 cell line [1]", "value": "induced G1 arrest"}, {"measurement": "cell cycle effect", "setting": "WSU-DLCL2 cell line", "value": "induced G1 arrest"}, {"measurement": "IC50", "setting": "DoHH2 FL cells; Homo sapiens, DOHH-2, 72 h, 3 day, read-out: anti-proliferative IC50", "value": 40, "unit": "nM"}, {"measurement": "combination effect, fractional product method", "setting": "DoHH2 FL cells; combined with Rituxan", "value": "synergistic manner"}, {"measurement": "IC50", "setting": "Karpas-1106P", "value": 280, "unit": "nM"}, {"measurement": "IC50", "setting": "OCI-Ly10", "value": 0.9, "unit": "nM"}, {"measurement": "IC50", "setting": "OCI-Ly3", "value": "> 10000", "unit": "nM"}, {"measurement": "IC50", "setting": "RIVA", "value": 2300, "unit": "nM"}, {"measurement": "IC50", "setting": "SUDHL4", "value": 1600, "unit": "nM"}, {"measurement": "IC50", "setting": "TMD8", "value": 59, "unit": "nM"}, {"measurement": "IC50", "setting": "U2932", "value": 5, "unit": "nM"}, {"measurement": "IC50", "setting": "[2]", "value": 1320, "unit": "nM"}, {"measurement": "IC50", "setting": "[3]", "value": 1200, "unit": "nM"}, {"measurement": "IC50", "setting": "[4]", "value": 510, "unit": "nM"}, {"measurement": "IC50", "setting": "[5]", "value": 1580, "unit": "nM"}, {"measurement": "expression of cyclin-dependent kinase inhibitor p27", "setting": "H929 cells; 48 hours", "value": "increased"}, {"measurement": "expression of retinoblastoma protein (pRB)", "setting": "H929 cells; 48 hours", "value": "decreased"}, {"measurement": "expression of survivin", "setting": "H929 cells; 48 hours", "value": "decreased"}, {"measurement": "decrease in cell cycle (S-phase)", "setting": "H929 cells; after 24 hours of treatment", "value": 50, "unit": "%"}, {"measurement": "% TGD ((T − C)/C)", "setting": "[6]; [10]", "value": 33, "unit": "%"}, {"measurement": "% TGI at D12 (T/C)", "setting": "[6]; [10]", "value": 49, "unit": "%"}, {"measurement": "tumor growth, combination study", "setting": "[6]; 3 mg/kg in combination with Rituxan", "value": "more efficacious than Revlimid at 30 mg/kg in combination with Rituxan"}, {"measurement": "% TGD ((T − C)/C)", "setting": "[6]; [11]", "value": 13, "unit": "%"}, {"measurement": "% TGI at D12 (T/C)", "setting": "[6]; [11]", "value": 27, "unit": "%"}, {"measurement": "% TGD ((T − C)/C)", "setting": "[6]; [12]", "value": 57, "unit": "%"}, {"measurement": "% TGI at D12 (T/C)", "setting": "[6]; [12]", "value": 71, "unit": "%"}, {"measurement": "% TGD ((T − C)/C)", "setting": "[6]; [13]", "value": 21, "unit": "%"}, {"measurement": "% TGI at D12 (T/C)", "setting": "[6]; [13]", "value": 35, "unit": "%"}, {"measurement": "% TGD ((T − C)/C)", "setting": "[6]; [14]", "value": 56, "unit": "%"}, {"measurement": "% TGI at D12 (T/C)", "setting": "[6]; [14]", "value": 50, "unit": "%"}, {"measurement": "% TGD ((T − C)/C)", "setting": "[6]; [15]", "value": 52, "unit": "%"}, {"measurement": "% TGI at D12 (T/C)", "setting": "[6]; [15]", "value": 67, "unit": "%"}, {"measurement": "tumor growth, monotherapy study", "setting": "[6]; 2 and 40 mg/kg", "value": "significantly inhibits tumor growth"}, {"measurement": "F", "setting": "[7]; 1 mpk po", "value": 20, "unit": "%"}, {"measurement": "AUC", "setting": "[7]; plasma, 0.5 mg/kg, 0.5 mpk iv", "value": "490 ng·h/mL and 1.1 µM·h"}, {"measurement": "clearance", "setting": "[7]; plasma, 0.5 mg/kg, 0.5 mpk iv, read-out: CLp", "value": 8.4, "unit": "mL/min/kg"}, {"measurement": "Vd", "setting": "[7]; plasma, 0.5 mg/kg, 0.5 mpk iv, read-out: Vss", "value": 1.2, "unit": "L/kg"}, {"measurement": "AUC", "setting": "[7]; plasma, 1 mg/kg, 1 mpk po", "value": "390 ng·h/mL and 0.87 µM·h"}, {"measurement": "Cmax", "setting": "[7]; plasma, 1 mg/kg, 1 mpk po", "value": "140 ng/mL and 310 nM"}]}, {"smiles": "O=C1CCC(N2Cc3c(OCc4ccc(CN5CCOCC5)cc4)cccc3C2=O)C(=O)N1", "note": "(racemic) [Compound I, 3-(4-((4-(morpholinomethyl)benzyl)oxy)-1-oxoisoindolin-2-yl)piperidine-2,6-dione]", "values": [{"measurement": "apoptosis induction and live cell number reduction in combination", "setting": "DoHH2 cell line [8]; combined with Rituxan", "value": "additive manner"}, {"measurement": "apoptosis and cell numbers", "setting": "DoHH2 cell line [8]; single agent", "value": "induced apoptosis"}, {"measurement": "blood vessel growth (ms CD31 IHC)", "setting": "[9]", "value": "significantly inhibits"}]}]}
